Where two headings read alike, the source gives them in different places.

The procedure of data set [1]:
During the period of observation, vital signs (blood pressure and pulse) and symptoms were continuously recorded. The protocol was such that if the blood pressure dropped by more than 20 mm Hg systolic or diastolic or the pulse increased by more than 30 beats per minute for 2 minutes, intravenous saline was to be administered and the study terminated.

For data set [2] the following is noted: in vivo; cited from earlier work.
The test system of data set [3] is gastrointestinal motility. Conditions: controlled studies; cited from earlier work.
In data set [4] the test system is antroduodenal activity. Conditions: 1 mg IV followed by 2 mg IV over 2 hours; cited from earlier work.
In data set [5] the test system is opossum duodenum. The conditions noted are these: cited from earlier work.
Data set [6] relates to gastroduodenal motility. The conditions noted are these: cited from earlier work.
The conditions of data set [7]: dose dependent; cited from earlier work.

With `CC[C@H](C)[C@H](NC(=O)[C@H](CO)NC(=O)[C@H](CC(N)=O)NC(=O)[C@H](CC(C)C)NC(=O)[C@H](Cc1ccc(O)cc1)NC(=O)[C@H](CCCCN)NC(=O)[C@H](CCCCN)NC(=O)[C@@H](NC(=O)[C@H](C)NC(=O)[C@H](CCSC)NC(=O)[C@H](CCC(N)=O)NC(=O)[C@H](CCCCN)NC(=O)[C@H](CCCN=C(N)N)NC(=O)[C@H](CC(C)C)NC(=O)[C@H](CCCN=C(N)N)NC(=O)[C@@H](NC(=O)[C@H](Cc1ccc(O)cc1)NC(=O)[C@H](CC(N)=O)NC(=O)[C@H](CC(=O)O)NC(=O)[C@@H](NC(=O)[C@H](Cc1ccccc1)NC(=O)[C@@H](NC(=O)[C@H](C)NC(=O)[C@H](CC(=O)O)NC(=O)[C@H](CO)NC(=O)[C@@H](N)Cc1c[nH]cn1)C(C)C)[C@@H](C)O)[C@@H](C)O)C(C)C)C(=O)N[C@@H](CC(C)C)C(=O)N[C@@H](CC(N)=O)C(N)=O` [VIP, vasoactive intestinal peptide], in data set [1] (criterion: blood pressure drop >20 mm Hg or pulse increase >30 beats per minute for 2 minutes), the “need to terminate the study” value is listed as “none of the three patients”. The “effects on blood pressure and pulse” value in data set [1] (first patient, higher dose level (20 ng/kg)) was “not seen”. The “effect on blood pressure and pulse” value in data set [1] (first patient, initial dose of 5 ng VIP per kg) was “slight decrease in systolic pressure and increase in pulse”. For the same compound, the “effect on blood pressure” value in data set [1] (gastroparetic dose) was “without a significant effect”. The “side effects of nausea and vomiting” value in data set [1] (method of the invention) is “free of the negative side effects of nausea and vomiting”. Further, the “change in blood pressure or pulse” value is given as “no significant change” in data set [1] (second patient, any of the dosages tested (5, 20, 100 ng/kg)) and “no significant change” in data set [1] (third patient, any dose of VIP administered). Also, the “adverse reactions such as nausea or vomiting” value in data set [1] (three patients, 5-300 ng/kg IV) is given as “None of the three patients”.
As to `CN1[C@@H]2CC[C@H]1C[C@@H](OC(=O)C(CO)c1ccccc1)C2` (some centres unmarked) [atropine], in data set [2], the cardiac arrhythmias result was “increased risk”; the undesirable side effects result is “blurred vision, headache, and urinary retention”. The “improvement in patient tolerance or facilitation of endoscopy” value in data set [3] is reported as “failed to demonstrate any beneficial effects”.
Take glucagon: in data set [4], the “cycle length and time between contractile activity in the duodenum” value was “significantly increased”; the mean pressure period entry is “decreased”. In data set [5], the “effect on duodenum muscle” value is given as “stimulated relaxation”. Moreover, the gastroduodenal motility result in data set [6] (dose-dependent) is “variable reduction”. In addition, the minimally effective dose in data set [6] (reduction in gastroduodenal motility) was 0.5 mg. Moreover, the “dose at which nausea and vomiting can appear” value in data set [7] is on record as 1 mg.
